How the values were obtained:
Experiment in all cases: cells
COLO-829 = type: functional, cell-based, Homo sapiens; conditions: Homo sapiens, COLO-829
Description: SANGER: Inhibition of human COLO-829 cell growth in a cell viability assay.

ACN = type: functional, cell-based, Homo sapiens; conditions: Homo sapiens, ACN;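 further: growth inhibition of the human ACN cell line, read out via cell viability testing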
Description: SANGER: Inhibition of human ACN cell growth in a cell viability assay.

SCC-4 = type: functional, cell-based, Homo sapiens; conditions: Homo sapiens, SCC-4;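 further: growth inhibition of human SCC-4 cells, read out as cell viability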
Description: SANGER: Inhibition of human SCC-4 cell growth in a cell viability assay.

NB12 = type: functional, cell-based, Homo sapiens; conditions: Homo sapiens, NB12;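 further: growth inhibition of human NB12 cells, read out by a cell viability assay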
Description: SANGER: Inhibition of human NB12 cell growth in a cell viability assay.

NH-12 = type: functional, cell-based, Homo sapiens; conditions: Homo sapiens, NH-12;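 further: growth inhibition of NH-12 cells, read out with a cell viability assay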
Description: SANGER: Inhibition of human NH-12 cell growth in a cell viability assay.

BHT-101 = type: functional, cell-based, Homo sapiens; conditions: Homo sapiens, BHT-101
Description: SANGER: Inhibition of human BHT-101 cell growth in a cell viability assay.

NCI-H2126 = type: functional, cell-based, Homo sapiens; conditions: Homo sapiens, NCI-H2126;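 further: growth inhibition of the cancer cell line, determined with a cell viability readout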
Description: SANGER: Inhibition of human NCI-H2126 cell growth in a cell viability assay.

WM-115 = type: functional, cell-based, Homo sapiens; conditions: Homo sapiens, WM-115
Description: SANGER: Inhibition of human WM-115 cell growth in a cell viability assay.

NB5 = type: functional, cell-based, Homo sapiens; conditions: Homo sapiens, NB5;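 further: growth inhibition of NB5 cells, read out as cell viability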
Description: SANGER: Inhibition of human NB5 cell growth in a cell viability assay.

Capan-2 = type: functional, cell-based, Homo sapiens; conditions: Homo sapiens, Capan-2;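 further: Capan-2 cell growth inhibition, read out with a viability assay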
Description: SANGER: Inhibition of human Capan-2 cell growth in a cell viability assay.

U2OS = type: functional, cell-based, Homo sapiens, U-2-OS; conditions: Homo sapiens, U2OS;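 further: growth inhibition of human U-2-OS cells, determined with a cell viability assay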
Description: SANGER: Inhibition of human U-2-OS cell growth in a cell viability assay.

CAMA-1 = type: functional, cell-based, Homo sapiens; conditions: Homo sapiens, CAMA-1;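 further: growth inhibition of CAMA-1 cells, read out with a cell viability assay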
Description: SANGER: Inhibition of human CAMA-1 cell growth in a cell viability assay.

TE-6 = type: functional, cell-based, Homo sapiens; conditions: Homo sapiens, TE-6;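 further: growth inhibition of TE-6 cells, read out with a cell viability assay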
Description: SANGER: Inhibition of human TE-6 cell growth in a cell viability assay.

TYK-nu = type: functional, cell-based, Homo sapiens; conditions: Homo sapiens, TYK-nu;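 further: growth inhibition of human TYK-nu cells, read out by a cell viability assay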
Description: SANGER: Inhibition of human TYK-nu cell growth in a cell viability assay.

KYSE-450 = type: functional, cell-based; conditions: Homo sapiens;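 further: cell growth inhibition measured by a viability assay in human KYSE-450 cells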
Description: SANGER: Inhibition of human KYSE-450 cell growth in a cell viability assay.

Ca-Ski = type: functional, cell-based; conditions: Homo sapiens;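 further: cell viability assay measuring inhibition of Ca-Ski cell growth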
Description: SANGER: Inhibition of human Ca-Ski cell growth in a cell viability assay.

DMS-273 = type: functional, cell-based, Homo sapiens; conditions: Homo sapiens, DMS-273
Description: SANGER: Inhibition of human DMS-273 cell growth in a cell viability assay.

HCC2157 = type: functional, cell-based; conditions: Homo sapiens;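 further: growth inhibition of the cancer cell line, read out as cell viability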
Description: SANGER: Inhibition of human HCC2157 cell growth in a cell viability assay.

GOTO = type: functional, cell-based, Homo sapiens; conditions: Homo sapiens, GOTO;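 further: growth inhibition of GOTO cells, read out by a cell viability assay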
Description: SANGER: Inhibition of human GOTO cell growth in a cell viability assay.

HCC70 = type: functional, cell-based, Homo sapiens; conditions: Homo sapiens, HCC70;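 further: cell viability assay measuring how strongly the compound suppresses proliferation of HCC70 cells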
Description: SANGER: Inhibition of human HCC70 cell growth in a cell viability assay.

A2780 = type: functional, cell-based, Homo sapiens; conditions: Homo sapiens, A2780;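 further: growth inhibition of A2780 cells, read out with a cell viability assay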
Description: SANGER: Inhibition of human A2780 cell growth in a cell viability assay.

MV4-11 = type: functional, cell-based, MV-4-11; conditions: Homo sapiens;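 further: cell viability readout measuring growth inhibition of human MV-4-11 cells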
Description: SANGER: Inhibition of human MV-4-11 cell growth in a cell viability assay.

A3-KAW = type: functional, cell-based; conditions: Homo sapiens;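 further: growth inhibition of human A3-KAW cells, read out with a cell viability assay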
Description: SANGER: Inhibition of human A3-KAW cell growth in a cell viability assay.

SK-PN-DW = type: functional, cell-based; conditions: Homo sapiens;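 further: growth inhibition measured with a viability assay on these cells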
Description: SANGER: Inhibition of human SK-PN-DW cell growth in a cell viability assay.

HH = type: functional, cell-based; conditions: Homo sapiens
Description: SANGER: Inhibition of human HH cell growth in a cell viability assay.

D283 Med = type: functional, cell-based, Homo sapiens; conditions: Homo sapiens, D283 Med
Description: SANGER: Inhibition of human D-283MED cell growth in a cell viability assay.

LK-2 = type: functional, cell-based, Homo sapiens; conditions: Homo sapiens, LK-2;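 further: growth inhibition of LK-2 cells, read out with a viability assay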
Description: SANGER: Inhibition of human LK-2 cell growth in a cell viability assay.

TE-11 = type: functional, cell-based, Homo sapiens; conditions: Homo sapiens, TE-11;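 further: growth inhibition of human TE-11 cells, read out by a cell viability assay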
Description: SANGER: Inhibition of human TE-11 cell growth in a cell viability assay.

HC-1 = type: functional, cell-based; conditions: Homo sapiens;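 further: growth inhibition of HC-1 cells measured by a cell viability assay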
Description: SANGER: Inhibition of human HC-1 cell growth in a cell viability assay.

NCI-H1563 = type: functional, cell-based, Homo sapiens; conditions: Homo sapiens, NCI-H1563;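 further: growth inhibition of human NCI-H1563 cells, read out with a cell viability assay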
Description: SANGER: Inhibition of human NCI-H1563 cell growth in a cell viability assay.

KOSC-2 = type: functional, cell-based, Homo sapiens; conditions: Homo sapiens, KOSC-2;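 further: growth inhibition of KOSC-2 cells, read out by a cell viability assay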
Description: SANGER: Inhibition of human KOSC-2 cell growth in a cell viability assay.

DoTc2-4510 = type: functional, cell-based, Homo sapiens; conditions: Homo sapiens, DoTc2-4510
MKN-45 = type: functional, cell-based, Homo sapiens; conditions: Homo sapiens, MKN-45;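 further: growth inhibition of human MKN-45 cells, measured with a cell viability assay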
Description: SANGER: Inhibition of human MKN45 cell growth in a cell viability assay.

DBTRG-05MG = type: functional, cell-based, Homo sapiens; conditions: Homo sapiens, DBTRG-05MG;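 further: cell viability assay measuring growth inhibition of human DBTRG-05MG cells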
Description: SANGER: Inhibition of human DBTRG-05MG cell growth in a cell viability assay.

LB373-MEL-D = type: functional, cell-based, Homo sapiens; conditions: Homo sapiens, LB373-MEL-D;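 further: growth inhibition of the cell line, read out in a cell viability assay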
Description: SANGER: Inhibition of human LB373-MEL-D cell growth in a cell viability assay.

LB771-HNC = type: functional, cell-based, Homo sapiens; conditions: Homo sapiens, LB771-HNC;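 further: growth inhibition of LB771-HNC human cells, read out with a cell viability assay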
Description: SANGER: Inhibition of human LB771-HNC cell growth in a cell viability assay.

NUGC-3 = type: functional, cell-based, Homo sapiens; conditions: Homo sapiens, NUGC-3;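 further: growth inhibition of human NUGC-3 cells, read out with a cell viability assay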
Description: SANGER: Inhibition of human NUGC-3 cell growth in a cell viability assay.

SK-OV-3 = type: functional, cell-based, Homo sapiens; conditions: Homo sapiens, SK-OV-3;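 further: growth inhibition of SK-OV-3 human cells, read out with a cell viability assay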
Description: SANGER: Inhibition of human SK-OV-3 cell growth in a cell viability assay.

Ramos-2G6-4C10 = type: functional, cell-based; conditions: Homo sapiens;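 further: growth inhibition of the cell line, measured by a cell viability read-out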
Description: SANGER: Inhibition of human Ramos-2G6-4C10 cell growth in a cell viability assay.

EFO-27 = type: functional, cell-based, Homo sapiens; conditions: Homo sapiens, EFO-27;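 further: growth inhibition of EFO-27 cells, read out with a cell viability assay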
Description: SANGER: Inhibition of human EFO-27 cell growth in a cell viability assay.

NCI-H520 = type: functional, cell-based, Homo sapiens; conditions: Homo sapiens, NCI-H520;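 further: growth inhibition of NCI-H520 cells, measured by a cell viability assay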
Description: SANGER: Inhibition of human NCI-H520 cell growth in a cell viability assay.

RH-1 = type: functional, cell-based, Homo sapiens; conditions: Homo sapiens, RH-1;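 further: growth inhibition of human RH-1 cells, read out with a cell viability assay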
Description: SANGER: Inhibition of human RH-1 cell growth in a cell viability assay.

HCC1569 = type: functional, cell-based, Homo sapiens; conditions: Homo sapiens, HCC1569;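 further: growth inhibition of human HCC1569 cells, read out with a cell viability assay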
Description: SANGER: Inhibition of human HCC1569 cell growth in a cell viability assay.

TGBC24TKB = type: functional, cell-based, Homo sapiens; conditions: Homo sapiens, TGBC24TKB;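 further: growth inhibition of human TGBC24TKB cells, read out with a cell viability assay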
Description: SANGER: Inhibition of human TGBC24TKB cell growth in a cell viability assay.

BE-13 = type: functional, cell-based; conditions: Homo sapiens;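 further: growth inhibition of human BE-13 cells, measured with a cell viability assay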
Description: SANGER: Inhibition of human BE-13 cell growth in a cell viability assay.

PANC-08-13 = type: functional, cell-based, Homo sapiens; conditions: Homo sapiens, PANC-08-13;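 further: cell growth inhibition, measured with a cell viability assay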
Description: SANGER: Inhibition of human PANC-08-13 cell growth in a cell viability assay.

ETK-1 = type: functional, cell-based, Homo sapiens; conditions: Homo sapiens, ETK-1;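 further: growth inhibition of human ETK-1 cells, read out with a cell viability assay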
Description: SANGER: Inhibition of human ETK-1 cell growth in a cell viability assay.

SAS = type: functional, cell-based, Homo sapiens; conditions: Homo sapiens, SAS;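 further: growth inhibition of SAS cells, read out with a cell viability assay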
Description: SANGER: Inhibition of human SAS cell growth in a cell viability assay.

VMRC-RCZ = type: functional, cell-based; conditions: Homo sapiens;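 further: growth inhibition measured with a cell viability assay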
Description: SANGER: Inhibition of human VMRC-RCZ cell growth in a cell viability assay.

ES5 = type: functional, cell-based, Homo sapiens; conditions: Homo sapiens, ES5;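 further: growth inhibition of human ES5 cells, read out by a cell viability assay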
Description: SANGER: Inhibition of human ES5 cell growth in a cell viability assay.

ES4 = type: functional, cell-based, Homo sapiens; conditions: Homo sapiens, ES4;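 further: growth inhibition of human ES4 cells, read out by a cell viability assay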
Description: SANGER: Inhibition of human ES4 cell growth in a cell viability assay.

CCC1=C[C@@H]2CN(C1)Cc1c([nH]c3ccccc13)[C@@](C(=O)OC)(c1cc3c(cc1OC)N(C)[C@H]1[C@@](O)(C(=O)OC)[C@H](OC(C)=O)[C@]4(CC)C=CCN5CC[C@]31[C@@H]54)C2 [VINORELBINE]
IC50 (COLO-829): 0.105 nM | IC50 (ACN): 1.33 nM | IC50 (SCC-4): 2.58 nM | IC50 (NB12): 2.11 nM | IC50 (NH-12): 27 nM | IC50 (BHT-101): > 64 nM | IC50 (NCI-H2126): 29.3 nM | IC50 (WM-115): > 64 nM | IC50 (NB5): > 64 nM | IC50 (Capan-2): 30.4 nM | IC50 (U2OS): > 64 nM | IC50 (CAMA-1): 45.6 nM | IC50 (TE-6): > 64 nM | IC50 (TYK-nu): > 64 nM | IC50 (KYSE-450): 9.74 nM | IC50 (Ca-Ski): 19.1 nM | IC50 (DMS-273): 2.71 nM | IC50 (HCC2157): 18.8 nM | IC50 (GOTO): > 64 nM | IC50 (HCC70): 30.6 nM | IC50 (A2780): 6.38 nM | IC50 (MV4-11): 10.4 nM | IC50 (A3-KAW): 21.6 nM | IC50 (SK-PN-DW): 12.5 nM | IC50 (HH): 8.88 nM | IC50 (D283 Med): > 64 nM | IC50 (LK-2): 12.5 nM | IC50 (TE-11): 9.16 nM | IC50 (HC-1): 3.89 nM | IC50 (NCI-H1563): 12.8 nM | IC50 (KOSC-2): > 64 nM | IC50 (DoTc2-4510): 3.59 nM | IC50 (MKN-45): 2.29 nM | IC50 (DBTRG-05MG): 3.88 nM | IC50 (LB373-MEL-D): 46.8 nM | IC50 (LB771-HNC): 8.59 nM | IC50 (NUGC-3): 5.99 nM | IC50 (SK-OV-3): 8.39 nM | IC50 (Ramos-2G6-4C10): 4.45 nM | IC50 (EFO-27): 5.79 nM | IC50 (NCI-H520): 1.87 nM | IC50 (RH-1): 11 nM | IC50 (HCC1569): 4.93 nM | IC50 (TGBC24TKB): 20.1 nM | IC50 (BE-13): 12.4 nM | IC50 (PANC-08-13): 46.9 nM | IC50 (ETK-1): 6.92 nM | IC50 (SAS): > 64 nM | IC50 (VMRC-RCZ): 18.8 nM | IC50 (ES5): > 64 nM | IC50 (ES4): > 64 nM

COc1cc([C@@H]2c3cc4c(cc3[C@@H](O[C@@H]3O[C@@H]5CO[C@@H](C)O[C@H]5[C@H](O)[C@H]3O)[C@H]3COC(=O)[C@H]23)OCO4)cc(OC)c1O [ETOPOSIDE]
IC50 (COLO-829): 1770 nM | IC50 (ACN): 79 nM | IC50 (SCC-4): 7200 nM | IC50 (NB12): 1080 nM | IC50 (NH-12): 672 nM | IC50 (BHT-101): 3110 nM | IC50 (NCI-H2126): 10400 nM | IC50 (WM-115): > 16000 nM | IC50 (NB5): > 16000 nM | IC50 (Capan-2): > 16000 nM | IC50 (U2OS): > 16000 nM | IC50 (CAMA-1): 13000 nM | IC50 (TE-6): > 16000 nM | IC50 (TYK-nu): 2410 nM | IC50 (KYSE-450): 3690 nM | IC50 (Ca-Ski): 2330 nM | IC50 (DMS-273): 573 nM | IC50 (HCC2157): > 16000 nM | IC50 (GOTO): 6380 nM | IC50 (HCC70): > 16000 nM | IC50 (A2780): 1110 nM | IC50 (MV4-11): 151 nM | IC50 (A3-KAW): 358 nM | IC50 (SK-PN-DW): 342 nM | IC50 (HH): 4440 nM | IC50 (D283 Med): 2200 nM | IC50 (LK-2): 1410 nM | IC50 (TE-11): 7460 nM | IC50 (HC-1): 540 nM | IC50 (NCI-H1563): 7070 nM | IC50 (KOSC-2): > 16000 nM | IC50 (DoTc2-4510): 1050 nM | IC50 (MKN-45): 1870 nM | IC50 (DBTRG-05MG): 2630 nM | IC50 (LB373-MEL-D): > 16000 nM | IC50 (LB771-HNC): > 16000 nM | IC50 (NUGC-3): 981 nM | IC50 (SK-OV-3): 10800 nM | IC50 (Ramos-2G6-4C10): 9940 nM | IC50 (EFO-27): 3360 nM | IC50 (NCI-H520): 8040 nM | IC50 (RH-1): 17.8 nM | IC50 (HCC1569): 3580 nM | IC50 (TGBC24TKB): > 16000 nM | IC50 (BE-13): 504 nM | IC50 (PANC-08-13): > 16000 nM | IC50 (ETK-1): 2750 nM | IC50 (SAS): 1270 nM | IC50 (VMRC-RCZ): 1970 nM | IC50 (ES5): > 16000 nM | IC50 (ES4): 521 nM
